According to patent publication US9364564B2, “Pre-mixed, ready-to-use pharmaceutical compositions” (EKR Therapeutics, Inc., priority 2006, dated 2016):
Structures can show the parent of a compound that is named as a salt.

Experiments:
[1] = Stability of concentrated ampul product after dilution with intravenous infusion fluids; assay type: physicochemical; conditions: diluted to 0.1 mg/ml in IV bag, 24 hours, final pH above 4.5
Method: Stability results for the concentrated ampul product diluted to 0.1 mg/ml with various commonly used intravenous infusion fluids in an IV bag are shown in FIG. 1. pH after mixing was measured and is reported on the X-axis. Product stability was measured by monitoring the % drug remaining after duration of 24 hours by RP-HPLC and is shown on the Y-axis.

[2] = Effect of plastic film composition (IV bag type) on stability at 40° C.; assay type: physicochemical; conditions: bags containing PVC (VIAFLEX, INTRAVIA), 0.2 mg/mL non-sorbitol dextrose formulation
Method: The effect of plastic film composition on the stability of ready to use premixed compositions comprising 0.2 mg/mL nicardipine HCl, 0.2 mM citrate, 5% dextrose, pH 4.0-4.2 for “incompatible” bags and “compatible” bags is shown in FIGS. 5A and 5B respectively. “Incompatible” bags contain polar polymers, such as polyvinyl chloride (PVC) and ethylene vinyl acetate (EVA). […] Stability evaluations were done for the 0.2 mg/mL non-sorbitol dextrose formulation in various commercially available IV infusion bag systems. […]®, and VISIV® bags were rinsed in water and covered with aluminum foil over pouches. The bags were filled with the above formulation and autoclaved at 105° C. for 21 minutes. […]®71 and GALAXY® bags were aseptically filled with the above formulation. Stability assessments were done by measuring the % drug remaining and total impurity formation (data not shown) as a function of time using RP-HPLC for samples incubated for up to 24 weeks at 40° C. The % drug remaining was calculated relative to the concentration measured post-mixing in tank.

[3] = weak base; cited from earlier work
[4] = cited from earlier work

Structure (SMILES)	drug loss post dilution [1]	loss in product potency upon storage [2]	pKa [3]	solubility in water [4]
COC(=O)C1=C(C)NC(C)=C(C(=O)OCCN(C)Cc2ccccc2)C1c1cccc([N+](=O)[O-])c1 (racemic) [nicardipine HCl, (±)-2-(benzyl-methylamino) ethyl methyl 1,4-dihydro-2,6-dimethyl-4-(m-nitrophenyl)-3,5-pyridinedicarboxylate monohydrochloride]	very pronounced drug loss	Significant loss in product potency	~7.2	–
COC(=O)C1=C(C)NC(C)=C(C(=O)OCCN(C)Cc2ccccc2)C1c1cccc([N+](=O)[O-])c1 (stereo not shown) [Nicardipine, nicardipine]	–	–	–	only slightly soluble
